# Reference: the NIST ThermoML archive (doi:10.1021/je400184t)
# “And” between values parts separate entries of the source, which are not always exact repeats. Equal entries are not always repeated. Numbers after ± are expanded uncertainties.
# What was measured:
# [1] = xn = mol fraction of the nth substance listed; conditions: 101 kPa, Liquid, Vibrating tube method, x1 = 1
# [2] = 101 kPa, Liquid, Vibrating tube method
structure (smiles),measurement,setting,value
CCCCCCC [heptane] + Cc1ccccc1,mass density,[1]; 298.15 K,679.537 ± 0.26 kg/m3
CN(CCO)CCO [N-methyldiethanolamine],mass density,[2]; 288.15 K,1046.36 ± 0.21 kg/m3
same,mass density,[2]; 298.15 K,1036.81 ± 0.21 kg/m3
same,mass density,[2]; 353.15 K,994.015 ± 0.2 kg/m3
c1ccncc1 [pyridine],mass density,[2]; 288.15 K,988.041 ± 0.2 kg/m3 and 988.343 ± 0.2 kg/m3
same,mass density,[2]; 298.15 K,978.145 ± 0.2 kg/m3 and 978.086 ± 0.2 kg/m3
same,mass density,[2]; 353.15 K,921.953 ± 0.21 kg/m3 and 921.952 ± 0.21 kg/m3
Cc1ccccc1 [toluene],mass density,[2]; 298.15 K,862.222 ± 0.21 kg/m3
CCCCCCC [heptane],mass density,[2]; 298.15 K,679.537 ± 0.26 kg/m3
c1ccncc1 [pyridine] + CN(CCO)CCO,mass density,[1]; 288.15 K,988.343 ± 0.2 kg/m3
same,mass density,[1]; 298.15 K,978.086 ± 0.2 kg/m3
same,mass density,[1]; 353.15 K,921.952 ± 0.21 kg/m3
NCCO [2-aminoethan-1-ol],mass density,[2]; 288.15 K,1019.87 ± 0.2 kg/m3
same,mass density,[2]; 298.15 K,1012.12 ± 0.2 kg/m3
same,mass density,[2]; 353.15 K,968.332 ± 0.2 kg/m3
c1ccncc1 [pyridine] + NCCO,mass density,[1]; 288.15 K,988.041 ± 0.2 kg/m3
same,mass density,[1]; 298.15 K,978.145 ± 0.2 kg/m3
same,mass density,[1]; 353.15 K,921.953 ± 0.21 kg/m3
